We go through one compound from patent US20230233577A1, “17Beta-ESTRADIOL/VITAMIN C MOLECULAR COMPLEX, PREPARATION METHOD, AND USE THEREOF” (ZHEJIANG MEDICINE CO., LTD.XINCHANG PHARMACEUTICAL FACTORY, priority 2020, published 2023).

Marks after values point to notes of the source that are not given here.

Holding throughout (format): in vivo, ICR mice
Series [1] concerns ovariectomized female mice. Put plainly: Trabecular bone density in ovariectomized female mice (CT of left femur). The settings on record: oral, 4 weeks, n = 11.
Series [2] relates to ovariectomized female mice. Briefly: Femoral dry weight in ovariectomized female mice. The settings on record: oral, 4 weeks, n = 11.
In series [3] the test system is ovariectomized female mice. Put plainly: Femoral ash weight in ovariectomized female mice. The settings on record: oral, 4 weeks, n = 11.
For series [4], the system named is ovariectomized female mice. Put plainly: Femoral mineral content (BMC, ash weight/dry weight) in ovariectomized female mice. The settings on record: ratio femoral ash weight/dry weight, oral, 4 weeks, n = 11.
Series [5] has as its system ovariectomized female mice. Briefly: Femoral length and ratio of femoral ash weight to femoral length in ovariectomized female mice. The settings on record: oral, 4 weeks, n = 11.
Series [6] concerns ovariectomized female mice. Put plainly: Femoral calcium content in ovariectomized female mice (OCPC method). The settings on record: oral, 4 weeks, n = 11.
Series [7] deals with ovariectomized female mice. Briefly: Uterine weight (endometrial hyperplasia side effect) in ovariectomized female mice. The settings on record: for Uterine weight (mean ± SD): ovariectomized mice, oral, n = 11.
Series [8] deals with ovariectomized female mice. Briefly: Pathological sections of oviduct walls, endometria and uterine glands of ovariectomized female mice. The procedure: Pathological sections of oviduct walls, endometria, and uterine glands of ovariectomized female mice were prepared to evaluate the influence of the complex on the oviduct walls, endometria, and uterine glands of the ovariectomized mice.

Series [9] has as its system ovariectomized female mice. Put plainly: Tail bleeding time (thrombosis side effect) in ovariectomized female mice. The settings on record: for Bleeding time (tail, mean ± SD): ovariectomized mice, oral, 30 min after last administration, n = 11.
Setting [10] is: at both doses of 2.3 μmol/kg/day and 0.23 μmol/kg/day.
Where [11] appears, read: ovariectomized mouse treated at 2.3 μmol/kg/day.
[12] abbreviates: summary of pathological sections FIG. 3A to FIG. 8E.

Consider `C[C@]12CC[C@@H]3c4ccc(O)cc4CC[C@H]3[C@@H]1CC[C@@H]2O` [17β-estradiol], for which the entries for the “Trabecular bone density (mean ± SD)” value in series [1] (dose 0.23 μmol/kg/day) and in [1] (dose 2.3 μmol/kg/day) were 595.35 ± 30.47^d mg/cm^3 and 748.57 ± 33.37^a mg/cm^3, respectively. For the same compound, the results for the “Femoral dry weight (mean ± SD)” value in series [2] (dose 0.23 μmol/kg/day) and in series [2] (dose 2.3 μmol/kg/day) were 49.08 ± 6.02^b mg and 54.42 ± 2.96^a mg, respectively. In addition, the “Femoral ash weight (mean ± SD)” value in series [3] (dose 0.23 μmol/kg/day) is reported as 29.08 ± 5.42^b mg; in series [3] (dose 2.3 μmol/kg/day), 33.37 ± 3.21^a mg. Also, the “BMC (femoral mineral content, mean ± SD)” value in series [4] (dose 0.23 μmol/kg/day) is on record as 0.560 ± 0.041 mg/mg; in series [4] (dose 2.3 μmol/kg/day), 0.620 ± 0.020^a mg/mg. Besides, the entries for the “Ash weight/length (mean ± SD)” value in series [5] (dose 0.23 μmol/kg/day) and in series [5] (dose 2.3 μmol/kg/day) were 1.72 ± 0.22 mg/mm and 2.02 ± 0.20^a mg/mm, respectively. Further, the figures for the “Femoral calcium content (mean ± SD)” value in series [6] (dose 0.23 μmol/kg/day) and in series [6] (dose 2.3 μmol/kg/day) were 23.34 ± 0.70% and 24.57 ± 1.85^a %, respectively. In [7] (setting [10]), the “Effect on uterine weight (in words)” value is reported as “significantly increased the uterine weight”. The “Uterine weight (mean ± SD)” value in series [7] (dose 0.23 μmol/kg) is 0.200 ± 0.041^a g; in [7] (dose 2.3 μmol/kg) it was 0.207 ± 0.045^a g. The “Thickness of endometrium (pathological section)” value in [8] (setting [11]) was 23.08 μm. Besides, the “Thickness of oviduct wall (pathological section)” value in series [8] (setting [11]) came to 152.11 μm. In series [8] (setting [11]), the “Uterine gland pathology (in words)” value was “the density of the tissue around the uterine gland is significantly reduced”. The “Lesions of uterine glands (in words)” value in [8] (setting [12]) is on record as “could cause lesions of uterine glands”. Besides, the “Thickening of endometria and oviduct walls (in words)” value in series [8] (setting [12]) is “could induce the thickening of endometria and oviduct walls”. Further, in series [9] (setting [10]), the “Effect on tail bleeding time (in words)” value is on record as “significantly shortened the tail bleeding time”. Besides, the “Bleeding time (tail, mean ± SD)” value in series [9] (dose 0.23 μmol/kg/day) is 640.6 ± 189.6^a s; in series [9] (dose 2.3 μmol/kg/day) it was 659.1 ± 203.8^a s.
